# Laboratory results as given in the kinase profiling compilation of Christmann-Franck et al. (2016).
# Legend:
# Experiment in all cases: radiometric filter-binding kinase assay
# [1] = target: PAK7 (human) (UniProt Q9P286); settings: compound 10.0 µM
# [2] = target: RPS6KA5 KD1 KD2 (human) (UniProt O75582)
# [3] = target: CaMK1 (human) (UniProt Q14012)
# [4] = target: BRSK1 (human) (UniProt Q8TDC3)
# [5] = target: MARK2 (human) (UniProt Q7KZI7)
# [6] = target: NUAK1 (human) (UniProt O60285)
# [7] = target: JAK2 JH1 JH2 (human) (UniProt O60674)
# JAK2 JH1 JH2 (human), sequence (O60674 whole entry, looked up): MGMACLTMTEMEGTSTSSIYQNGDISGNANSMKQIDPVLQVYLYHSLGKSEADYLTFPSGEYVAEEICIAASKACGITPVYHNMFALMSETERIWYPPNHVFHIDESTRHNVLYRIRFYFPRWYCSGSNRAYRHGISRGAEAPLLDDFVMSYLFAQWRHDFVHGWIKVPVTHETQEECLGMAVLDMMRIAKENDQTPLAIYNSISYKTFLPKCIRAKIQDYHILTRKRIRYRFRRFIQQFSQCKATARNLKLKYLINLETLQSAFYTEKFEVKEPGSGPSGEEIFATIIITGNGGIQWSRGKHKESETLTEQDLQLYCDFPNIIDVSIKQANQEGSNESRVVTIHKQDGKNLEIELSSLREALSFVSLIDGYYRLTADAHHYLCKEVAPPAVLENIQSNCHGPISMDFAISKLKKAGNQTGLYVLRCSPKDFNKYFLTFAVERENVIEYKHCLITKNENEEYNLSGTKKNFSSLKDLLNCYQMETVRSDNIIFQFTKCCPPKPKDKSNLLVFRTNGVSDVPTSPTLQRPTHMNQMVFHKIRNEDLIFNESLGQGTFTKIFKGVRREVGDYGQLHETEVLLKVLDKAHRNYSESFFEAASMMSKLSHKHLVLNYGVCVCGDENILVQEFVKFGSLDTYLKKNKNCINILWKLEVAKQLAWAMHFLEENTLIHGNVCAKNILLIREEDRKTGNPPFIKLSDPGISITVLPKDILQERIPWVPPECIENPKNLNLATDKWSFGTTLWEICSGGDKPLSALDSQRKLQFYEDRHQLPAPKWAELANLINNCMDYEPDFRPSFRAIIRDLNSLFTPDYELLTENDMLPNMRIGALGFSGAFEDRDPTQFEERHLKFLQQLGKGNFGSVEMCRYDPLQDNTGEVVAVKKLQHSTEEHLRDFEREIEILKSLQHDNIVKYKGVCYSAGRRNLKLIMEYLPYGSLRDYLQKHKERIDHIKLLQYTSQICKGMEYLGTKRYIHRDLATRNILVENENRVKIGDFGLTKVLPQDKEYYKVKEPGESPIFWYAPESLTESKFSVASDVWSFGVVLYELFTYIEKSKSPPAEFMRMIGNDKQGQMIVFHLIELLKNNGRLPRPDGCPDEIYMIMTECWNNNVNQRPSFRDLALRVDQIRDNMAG
# [8] = target: MST4 (human) (UniProt Q9P289)
# [9] = tested on: PRKAA1 or PRKAA2 (rat); settings: accession and sequence are those of the human protein
# [10] = target: EPHA4 (human) (UniProt P54764)
# EPHA4 (human), sequence (P54764 whole entry, looked up): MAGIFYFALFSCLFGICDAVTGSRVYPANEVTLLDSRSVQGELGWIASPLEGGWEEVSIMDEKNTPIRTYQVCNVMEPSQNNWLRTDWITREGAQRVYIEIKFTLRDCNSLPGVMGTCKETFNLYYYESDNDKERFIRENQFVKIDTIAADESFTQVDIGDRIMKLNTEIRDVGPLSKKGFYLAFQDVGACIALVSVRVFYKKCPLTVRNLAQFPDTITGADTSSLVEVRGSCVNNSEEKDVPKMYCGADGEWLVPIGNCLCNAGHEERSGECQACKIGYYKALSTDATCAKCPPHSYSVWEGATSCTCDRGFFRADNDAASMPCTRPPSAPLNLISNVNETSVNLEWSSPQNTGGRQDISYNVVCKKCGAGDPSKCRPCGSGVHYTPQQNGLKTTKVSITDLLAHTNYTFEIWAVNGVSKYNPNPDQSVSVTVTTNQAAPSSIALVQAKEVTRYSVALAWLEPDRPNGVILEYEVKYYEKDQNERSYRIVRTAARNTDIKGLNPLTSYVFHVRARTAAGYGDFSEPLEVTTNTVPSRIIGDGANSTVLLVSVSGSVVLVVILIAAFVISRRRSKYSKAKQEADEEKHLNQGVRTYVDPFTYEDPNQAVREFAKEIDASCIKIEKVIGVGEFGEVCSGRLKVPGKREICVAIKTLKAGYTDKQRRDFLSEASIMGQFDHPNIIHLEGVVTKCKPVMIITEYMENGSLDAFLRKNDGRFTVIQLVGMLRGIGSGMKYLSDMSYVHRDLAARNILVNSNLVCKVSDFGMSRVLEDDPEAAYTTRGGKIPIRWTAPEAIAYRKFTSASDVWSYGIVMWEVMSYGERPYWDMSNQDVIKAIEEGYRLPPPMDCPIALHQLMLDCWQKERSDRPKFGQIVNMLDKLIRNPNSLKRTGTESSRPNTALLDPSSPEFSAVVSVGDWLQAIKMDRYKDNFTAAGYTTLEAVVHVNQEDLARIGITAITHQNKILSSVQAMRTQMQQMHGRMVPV
# [11] = target: RIPK2 (human) (UniProt O43353)
# [12] = target: MINK1 (human) (UniProt Q8N4C8)
# [13] = target: MKNK1 (human) (UniProt Q9BUB5)
# [14] = target: PHKG1 (human) (UniProt Q16816)
# PHKG1 (human), sequence (Q16816 whole entry, looked up): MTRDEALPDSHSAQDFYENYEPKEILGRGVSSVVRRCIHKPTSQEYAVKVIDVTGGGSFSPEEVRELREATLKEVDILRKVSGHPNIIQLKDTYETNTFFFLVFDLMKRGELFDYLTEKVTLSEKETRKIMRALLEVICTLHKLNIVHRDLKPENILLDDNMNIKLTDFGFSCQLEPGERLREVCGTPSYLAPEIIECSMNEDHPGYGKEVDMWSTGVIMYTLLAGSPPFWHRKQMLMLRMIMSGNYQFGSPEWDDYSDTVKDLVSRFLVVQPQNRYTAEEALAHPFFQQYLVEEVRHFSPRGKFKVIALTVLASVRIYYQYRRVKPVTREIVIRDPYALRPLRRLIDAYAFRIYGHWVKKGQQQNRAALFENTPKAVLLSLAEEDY
# [15] = target: NEK2 (human) (UniProt P51955)
# NEK2 (human), sequence (P51955 whole entry, looked up): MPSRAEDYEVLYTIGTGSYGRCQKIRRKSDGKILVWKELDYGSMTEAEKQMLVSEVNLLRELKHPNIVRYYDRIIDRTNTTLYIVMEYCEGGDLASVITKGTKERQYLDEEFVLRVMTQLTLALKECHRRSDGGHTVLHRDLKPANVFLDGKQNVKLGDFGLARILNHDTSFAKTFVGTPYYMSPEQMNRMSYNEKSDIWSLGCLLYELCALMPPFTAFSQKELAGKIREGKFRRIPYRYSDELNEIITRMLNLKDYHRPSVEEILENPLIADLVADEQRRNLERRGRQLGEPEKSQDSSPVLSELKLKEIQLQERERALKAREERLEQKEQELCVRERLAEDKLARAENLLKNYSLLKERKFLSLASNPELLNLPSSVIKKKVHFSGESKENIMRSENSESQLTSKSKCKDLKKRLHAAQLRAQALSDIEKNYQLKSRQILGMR
# [16] = target: EPHA2 (human) (UniProt P29317)
# [17] = target: MAPK15 (human) (UniProt Q8TD08)
# MAPK15 (human), sequence (Q8TD08 whole entry, looked up): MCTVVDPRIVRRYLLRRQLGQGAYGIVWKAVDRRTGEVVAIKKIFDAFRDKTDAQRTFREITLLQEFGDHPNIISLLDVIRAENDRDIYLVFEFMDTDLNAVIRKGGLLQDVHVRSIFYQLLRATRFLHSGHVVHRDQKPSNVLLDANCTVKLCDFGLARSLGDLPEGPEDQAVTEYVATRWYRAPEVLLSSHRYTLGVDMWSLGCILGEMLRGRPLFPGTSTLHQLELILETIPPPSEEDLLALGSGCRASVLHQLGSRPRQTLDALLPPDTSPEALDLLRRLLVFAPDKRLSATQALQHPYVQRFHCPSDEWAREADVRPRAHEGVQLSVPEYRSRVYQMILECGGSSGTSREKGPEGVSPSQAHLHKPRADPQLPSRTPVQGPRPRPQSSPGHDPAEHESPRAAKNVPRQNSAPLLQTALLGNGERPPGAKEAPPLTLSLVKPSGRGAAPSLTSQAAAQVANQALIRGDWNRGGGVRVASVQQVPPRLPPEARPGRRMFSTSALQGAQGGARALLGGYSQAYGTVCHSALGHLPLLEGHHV
# [18] = target: CDK2 CCNA2 (human) (UniProt P20248+P24941)
# MARK2 (human), sequence (Q7KZI7 whole entry, looked up): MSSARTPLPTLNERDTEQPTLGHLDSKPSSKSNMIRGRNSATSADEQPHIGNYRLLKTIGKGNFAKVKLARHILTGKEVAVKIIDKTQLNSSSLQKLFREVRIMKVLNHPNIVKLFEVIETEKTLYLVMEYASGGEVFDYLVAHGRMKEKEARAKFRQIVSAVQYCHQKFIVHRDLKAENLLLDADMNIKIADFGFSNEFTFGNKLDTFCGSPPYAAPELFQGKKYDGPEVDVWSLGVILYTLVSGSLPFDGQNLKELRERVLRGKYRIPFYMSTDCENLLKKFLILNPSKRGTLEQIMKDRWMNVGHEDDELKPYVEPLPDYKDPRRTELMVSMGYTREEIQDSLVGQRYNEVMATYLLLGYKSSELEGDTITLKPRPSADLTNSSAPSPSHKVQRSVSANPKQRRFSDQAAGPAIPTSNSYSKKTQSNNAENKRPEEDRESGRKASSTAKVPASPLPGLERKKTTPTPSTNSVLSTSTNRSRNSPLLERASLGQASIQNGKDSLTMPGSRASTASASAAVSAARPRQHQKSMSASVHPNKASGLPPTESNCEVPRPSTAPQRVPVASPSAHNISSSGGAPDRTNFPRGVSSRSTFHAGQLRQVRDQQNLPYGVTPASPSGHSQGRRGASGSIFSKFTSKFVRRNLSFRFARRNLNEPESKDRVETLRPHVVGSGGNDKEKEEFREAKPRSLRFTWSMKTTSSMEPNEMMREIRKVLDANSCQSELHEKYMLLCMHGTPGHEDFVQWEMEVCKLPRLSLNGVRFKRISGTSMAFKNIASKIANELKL
# BRSK1 (human), sequence (Q8TDC3 whole entry, looked up): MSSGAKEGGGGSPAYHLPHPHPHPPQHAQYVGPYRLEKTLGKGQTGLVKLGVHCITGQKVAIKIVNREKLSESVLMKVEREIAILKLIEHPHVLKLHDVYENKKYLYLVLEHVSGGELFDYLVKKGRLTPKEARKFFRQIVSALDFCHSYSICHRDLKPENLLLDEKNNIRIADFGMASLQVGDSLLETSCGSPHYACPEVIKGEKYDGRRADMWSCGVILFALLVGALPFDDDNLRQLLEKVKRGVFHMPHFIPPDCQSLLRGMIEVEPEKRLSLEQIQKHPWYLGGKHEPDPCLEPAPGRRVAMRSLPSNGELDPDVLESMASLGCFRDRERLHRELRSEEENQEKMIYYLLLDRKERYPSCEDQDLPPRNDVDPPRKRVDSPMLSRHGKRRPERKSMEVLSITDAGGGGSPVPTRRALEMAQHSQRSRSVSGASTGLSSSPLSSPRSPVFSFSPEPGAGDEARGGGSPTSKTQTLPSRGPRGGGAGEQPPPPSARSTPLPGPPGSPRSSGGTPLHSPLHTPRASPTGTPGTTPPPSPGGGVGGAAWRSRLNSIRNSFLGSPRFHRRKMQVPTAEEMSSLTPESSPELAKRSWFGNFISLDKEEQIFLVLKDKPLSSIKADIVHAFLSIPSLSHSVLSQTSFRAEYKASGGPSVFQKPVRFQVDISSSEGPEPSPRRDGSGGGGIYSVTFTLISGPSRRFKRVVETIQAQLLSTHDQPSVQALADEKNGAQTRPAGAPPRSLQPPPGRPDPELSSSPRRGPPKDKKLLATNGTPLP
smiles,measurement,setting,value
c1ccc2c(-c3cnn4cc(-c5ccc(N6CCNCC6)cc5)cnc34)ccnc2c1,residual activity,[1],72%
same,residual activity,[2]; compound 0.1 µM,91%
same,residual activity,[2]; compound 1.0 µM,83%
same,residual activity,[2]; compound 10.0 µM,87%
same,residual activity,[3]; compound 0.1 µM,86%
same,residual activity,[3]; compound 1.0 µM,85%
same,residual activity,[3]; compound 10.0 µM,45%
same,residual activity,[4]; compound 0.1 µM,88%
same,residual activity,[4]; compound 1.0 µM,85%
same,residual activity,[4]; compound 10.0 µM,57%
same,residual activity,[5]; compound 0.1 µM,76%
same,residual activity,[5]; compound 1.0 µM,63%
same,residual activity,[5]; compound 10.0 µM,32%
same,residual activity,[6]; compound 0.1 µM,57%
same,residual activity,[6]; compound 1.0 µM,17%
same,residual activity,[6]; compound 10.0 µM,5%
same,residual activity,[7]; compound 0.1 µM,100%
same,residual activity,[7]; compound 1.0 µM,104%
same,residual activity,[7]; compound 10.0 µM,79%
same,residual activity,[8]; compound 0.1 µM,105%
same,residual activity,[8]; compound 1.0 µM,123%
same,residual activity,[8]; compound 10.0 µM,181%
same,residual activity,[9]; compound 0.1 µM,96%
same,residual activity,[9]; compound 1.0 µM,59%
same,residual activity,[9]; compound 10.0 µM,18%
same,residual activity,[10]; compound 0.1 µM,84%
same,residual activity,[10]; compound 1.0 µM,83%
same,residual activity,[10]; compound 10.0 µM,57%
same,residual activity,[11]; compound 0.1 µM,52%
same,residual activity,[11]; compound 1.0 µM,2%
same,residual activity,[11]; compound 10.0 µM,3%
same,residual activity,[12]; compound 0.1 µM,74%
same,residual activity,[12]; compound 1.0 µM,15%
same,residual activity,[12]; compound 10.0 µM,4%
same,residual activity,[13]; compound 0.1 µM,82%
same,residual activity,[13]; compound 1.0 µM,63%
same,residual activity,[13]; compound 10.0 µM,39%
same,residual activity,[14]; compound 0.1 µM,85%
same,residual activity,[14]; compound 1.0 µM,60%
same,residual activity,[14]; compound 10.0 µM,21%
same,residual activity,[15]; compound 0.1 µM,118%
same,residual activity,[15]; compound 1.0 µM,119%
same,residual activity,[15]; compound 10.0 µM,79%
same,residual activity,[16]; compound 0.1 µM,81%
same,residual activity,[16]; compound 1.0 µM,81%
same,residual activity,[16]; compound 10.0 µM,50%
same,residual activity,[17]; compound 0.1 µM,87%
same,residual activity,[17]; compound 1.0 µM,49%
same,residual activity,[17]; compound 10.0 µM,11%
same,residual activity,[18]; compound 0.1 µM,84%
same,residual activity,[18]; compound 1.0 µM,84%
same,residual activity,[18]; compound 10.0 µM,34%
